According to patent US20240398785A1, “SMALL MOLECULE DRUGS FOR THE INDUCTION OF TRAINED IMMUNITY” (THE UNIVERSITY OF CHICAGO, priority 2023, published 2024):

System: mice
Experiment: A1155463 in-vivo training, LPS challenge
Design: species or system mouse
Method: FIGS. 6A-6H: in-vivo A1155463 trained immunity (TI) assays. FIG. 6A is a schematic showing the in-vivo training schedule. Mice were dosed intraperitoneally (i.p.) with training material (PBS or A1155463 at 15 milligrams per kilogram body weight (mg/kg)) daily for six days. […] FIG. 6B is a graph showing the interleukin-6 (IL-6) and tumor necrosis factor-alpha (TNF-α) levels (expressed as picograms per milliliter (pg/ml) 1 hour (h) following LPS challenge with either PBS (black) or A1155463 (pink); n=5. FIG. 6C is a graph showing the percentage (%) of small peritoneal macrophages (SPMs) from the peritoneal cavity of PBS (black) or A1155463 trained (pink) mice 2 h post LPS challenge on day 7. FIG. 6D is a graph showing the IL-6 levels (pg/ml) from bone-marrow cells isolated on day 7 challenged ex-vivo with LPS from either PBS (black) or A1155463 (pink) trained mice; n=3. FIG. 6E is a schematic showing the in-vivo training schedule for B16.F10 tumor challenge. FIG. 6F is a graph showing the tumor volumes (in cubic millimeters (mm3)) of mice trained with PBS (black) or A1155463 (pink) mice; n=8. FIG. 6G is a schematic of the in-vivo training schedule for B16.F10 tumor challenge with checkpoint therapy (CPT) administered on day 14 and 17. FIG. 6H is a graph showing tumor volumes (mm^3) of mice trained with PBS (black; n=4) or A1155463 (pink; n=5).
FIG. 10: Ruling out innate immune priming: Mice were trained with PBS or vehicle (black) or A1155463 (pink) according to schedule illustrated in FIG. 6A.
Since A1155463 induced training effects in-vitro, its ability to induce training in mice was studied. […] The vehicle control group was also dosed similarly to account for solvent effects. To rule out the impact of innate immune priming due to the high dosage, systemic cytokines were checked for 24 hours after the last dosing on day 6. […] […].
Apart from increased systemic cytokines, recruitment of monocyte-derived small peritoneal macrophages (SPMs) is another hallmark of enhanced training. […] Central effects of trained immunity occur at the bone-marrow progenitor favoring myelopoiesis.^39 To test if A1155463 induced training effects in bone-marrow cells, cells were isolated from the bone-marrow seven days following the training schedule described in FIG. 6A. Bone-marrow cells from PBS or A1155463 trained cells were challenged with 5 ng/mL of LPS and the supernatant was analyzed 24 hours later. […].

[1] = 15 mg/kg i.p. daily for 6 days, LPS 5 μg per mouse, after 1 hour

## CN(C)CC#Cc1ccc(OCCCc2sc(N3CCc4cccc(C(=O)Nc5nc6ccccc6s5)c4C3)nc2C(=O)O)c(F)c1 [A1155463, 2-(8-(benzo[d]thiazol-2-ylcarbamoyl)-3,4-dihydroisoquinolin-2(1H)-yl)-5-(3-(4-(3-(dimethyl-amino)prop-1-yn-1-yl)-2-fluorophenoxy)propyl)thiozole-4-carboxylic acid]
15 mg/kg i.p. daily for 6 days, 24 hours after the last dosing
  systemic IL-6 or TNF-α without challenge (priming): No systemic IL-6 or TNF-α was observed
[1]
  increase in IL-6 following LPS challenge: 2.3 fold
  increase in TNF-α following LPS challenge: 1.97 fold
Two hours post-LPS challenge
  percentage of SPMs: non-significant increase
